Experimental data as given in patent US20110281896A1, “OPTICALLY PURE QUINAZOLINE COMPOUNDS” (Jiangsu Hansoh Pharmaceutical Co. Ltd, priority 2009, published 2011).

How the values were obtained:
A431 = assay: Antitumor activity in vitro, SRB cell proliferation inhibition; type: cell-based; settings: 72 h incubation, Logit method
Procedure: (§1) Evaluation of Antitumor Activity In Vitro
(§2) Cell Strains: A431; MCF-7
(§3) Experiment Design: Cells were incubated with different concentrations of compounds for 72 hours. The inhibition of cell proliferation by the compounds was evaluated by SRB, followed by calculation of the inhibition rate. Then, value of IC50 was calculated by using-Logit method base on the inhibition rate and used to compare in vitro antitumor activity of the compounds.
(§4) Method for Calculating the Inhibition Rate: Inhibition rate (%)=(OD value of control group−OD value of drug group)/OD value of control group×100%

MCF-7 = assay: as above; type: cell-based; settings: 72 h incubation, Logit method
Procedure: as §1, §2, §3, §4

[1] = Homo sapiens, A-431, A431 cells
[2] = Homo sapiens, MCF7, MCF-7 cells

Row | Structure (SMILES) | IC50 (A431; A431 cells) | IC50 (MCF-7; MCF-7 cells) | IC50 (A431; [1]) | IC50 (MCF-7; [2])
1 | C#CCN[C@@H](CS(C)(=O)=O)c1cnc(-c2ccc3ncnc(Nc4ccc(OCc5cccc(F)c5)c(Cl)c4)c3c2)s1 [Compound 128] | 0.672 µM | 6.34 µM | – | –
2 | CN[C@H](CS(C)(=O)=O)c1ccc(-c2ccc3ncnc(Nc4ccc(OCc5cccc(F)c5)c(Cl)c4)c3c2)o1 [Compound 93, (S)—N-(4-(3-fluorobenzyl-oxy)-3-chlorphenyl)-6-(5-(1-(methylamino)-2-(methylsulfonyl)ethyl)furan-2-yl)quinazolin-4-amine] | 0.46 µM | 8.86 µM | – | –
3 | CON(C)[C@H](CS(C)(=O)=O)c1ccc(-c2ccc3ncnc(Nc4ccc(OCc5cccc(F)c5)c(Cl)c4)c3c2)o1 [Compound 104] | 0.632 µM | 9 µM | – | –
4 | CCN(CC)[C@H](CS(C)(=O)=O)c1ccc(-c2ccc3ncnc(Nc4ccc(OCc5cccc(F)c5)c(Cl)c4)c3c2)o1 [Compound 98, (S)—N-(4-(3-fluorobenzyl-oxy)-3-chlorophenyl)-6-(5-(1-(N,N-diethyl-amino)-2-(methyl-sulfonyl)ethyl)furan-2-yl)quinazolin-4-amine] | – | – | 0.677 µM | 7.66 µM
5 | CCCN(CCC)[C@@H](CS(C)(=O)=O)c1cnc(-c2ccc3ncnc(Nc4ccc(OCc5cccc(F)c5)c(Cl)c4)c3c2)s1 [Compound 125] | 0.523 µM | 7.76 µM | – | –
6 | CCCN(CCC)[C@H](CS(C)(=O)=O)c1ccc(-c2ccc3ncnc(Nc4ccc(OCc5cccc(F)c5)c(Cl)c4)c3c2)o1 [Compound 99, (S)—N-(4-(3-fluorobenzyl-oxy)-3-chlorophenyl)-6-(5-(1-(N,N-dipropyl-amino)-2-(methylsulfonyl)ethyl)furan-2-yl)quinazolin-4-amine] | – | – | 0.759 µM | 5.92 µM
7 | CCN(CC)[C@@H](CS(C)(=O)=O)c1ccc(-c2ccc3ncnc(Nc4ccc(OCc5cccc(F)c5)c(Cl)c4)c3c2)o1 [Compound 111, (R)—N-(4-(3-fluorobenzyl-oxy)-3-chlorophenyl)-6-(5-(1-(N,N-diethyl-amino)-2-(methylsulfonyl)ethyl)furan-2-yl)quinazolin-4-amine] | – | – | 0.699 µM | 6.82 µM
8 | CCN[C@@H](CS(C)(=O)=O)c1ccc(-c2ccc3ncnc(Nc4ccc(OCc5cccc(F)c5)c(Cl)c4)c3c2)o1 [Compound 107, (R)—N-(4-(3-fluorobenzyl-oxy)-3-chlorophenyl)-6-(5-(1-(ethylamino)-2-(methylsulfonyl)ethyl)furan-2-yl)quinazolin-4-amine] | – | – | 0.578 µM | 6.77 µM
9 | CCCN[C@H](CS(C)(=O)=O)c1ccc(-c2ccc3ncnc(Nc4ccc(OCc5cccc(F)c5)c(Cl)c4)c3c2)o1 [Compound 95, (S)—N-(4-(3-fluorobenzyl-oxy)-3-chlorophenyl)-6-(5-(1-(propyl-amino)-2-(methylsulfonyl)ethyl)furan-2-yl)quinazolin-4-amine] | – | – | 0.453 µM | 7.9 µM
10 | CCN(CC)[C@@H](CS(C)(=O)=O)c1cnc(-c2ccc3ncnc(Nc4ccc(OCc5cccc(F)c5)c(Cl)c4)c3c2)s1 [Compound 124] | 0.685 µM | 7.98 µM | – | –
11 | CON(C)[C@@H](CS(C)(=O)=O)c1ccc(-c2ccc3ncnc(Nc4ccc(OCc5cccc(F)c5)c(Cl)c4)c3c2)o1 [Compound 117] | 0.636 µM | 7.63 µM | – | –
12 | C#CCN[C@@H](CS(C)(=O)=O)c1ccc(-c2ccc3ncnc(Nc4ccc(OCc5cccc(F)c5)c(Cl)c4)c3c2)o1 [Compound 115, (R)—N-(4-(3-fluorobenzyl-oxy)-3-chlorophenyl)-6-(5-(1-(propargyl-amino)-2-(methylsulfonyl)ethyl)furan-2-yl)quinazolin-4-amine] | – | – | 0.536 µM | 7.58 µM
13 | CCN[C@@H](CS(C)(=O)=O)c1cnc(-c2ccc3ncnc(Nc4ccc(OCc5cccc(F)c5)c(Cl)c4)c3c2)s1 [Compound 120] | 0.658 µM | 7.56 µM | – | –
14 | C=CCN[C@H](CS(C)(=O)=O)c1ccc(-c2ccc3ncnc(Nc4ccc(OCc5cccc(F)c5)c(Cl)c4)c3c2)o1 [Compound 101, (S)—N-(4-(3-fluorobenzyl-oxy)-3-chlorophenyl)-6-(5-(1-(allyl-amino)-2-(methylsulfonyl)ethyl)furan-2-yl)quinazolin-4-amine] | – | – | 0.588 µM | 10.4 µM
15 | CS(=O)(=O)C[C@H](NCC1CC1)c1ccc(-c2ccc3ncnc(Nc4ccc(OCc5cccc(F)c5)c(Cl)c4)c3c2)o1 [Compound 109, (R)—N-(4-(3-fluorobenzyl-oxy)-3-chlorophenyl)-6-(5-(1-(cyclopropylmethyl-amino)-2-(methylsulfonyl)ethyl)furan-2-yl)quinazolin-4-amine] | – | – | 0.756 µM | 6.21 µM
16 | CCCN(CCC)[C@@H](CS(C)(=O)=O)c1ccc(-c2ccc3ncnc(Nc4ccc(OCc5cccc(F)c5)c(Cl)c4)c3c2)o1 [Compound 112, (R)—N-(4-(3-fluorobenzyl-oxy)-3-chlorophenyl)-6-(5-(1-(N,N-dipropyl-amino)-2-(methylsulfonyl)ethyl)furan-2-yl)quinazolin-4-amine] | – | – | 0.855 µM | 6.22 µM
17 | CS(=O)(=O)C[C@@H](N)c1ccc(-c2ccc3ncnc(Nc4ccc(OCc5cccc(F)c5)c(Cl)c4)c3c2)o1 [Compound 92, (S)—N-(4-(3-fluorobenzyl-oxy)-3-chlorophenyl)-6-(5-(1-(amino)-2-(methylsulfonyl)ethyl)furan-2-yl)quinazolin-4-amine] | – | – | 0.422 µM | 9.34 µM
18 | CCN(C)[C@@H](CS(C)(=O)=O)c1ccc(-c2ccc3ncnc(Nc4ccc(OCc5cccc(F)c5)c(Cl)c4)c3c2)o1 [Compound 113, (R)—N-(4-(3-fluorobenzyloxy)-3-chlorophenyl)-6-(5-(1-(N-methyl, N-ethyl-amino)-2-(methylsulfonyl)ethyl)furan-2-yl)quinazolin-4-amine] | – | – | 0.758 µM | 7.07 µM

Results, then the compound that gave them:

Row | IC50 (A431; A431 cells) | IC50 (MCF-7; MCF-7 cells) | IC50 (A431; [1]) | IC50 (MCF-7; [2]) | Structure (SMILES)
19 | 0.624 µM | 6.67 µM | – | – | CCN(CC)[C@H](CS(C)(=O)=O)c1ccc(-c2ccc3ncnc(Nc4ccc5c(cnn5Cc5cccc(F)c5)c4)c3c2)o1 [Compound 150]
20 | – | – | 0.857 µM | 5.87 µM | C=CCN[C@H](CS(C)(=O)=O)c1ccc(-c2ccc3ncnc(Nc4ccc5c(cnn5Cc5cccc(F)c5)c4)c3c2)o1 [Compound 153, (S)—N-(1-(3-fluorobenzyl)-1H-indazol-5-yl)-6-(5-(1-(allyl-amino)-2-(methylsulfonyl)ethyl)furan-2-yl)quinazolin-4-amine]
21 | – | – | 0.581 µM | 8.24 µM | CN[C@H](CS(C)(=O)=O)c1ccc(-c2ccc3ncnc(Nc4ccc5c(cnn5Cc5cccc(F)c5)c4)c3c2)o1 [Compound 145, (S)—N-(1-(3-fluorobenzyl)-1H-indazol-5-yl)-6-(5-(1-(methylamino)-2-(methylsulfonyl)ethyl)furan-2-yl)quinazolin-4-amine]
22 | 0.601 µM | 6.54 µM | – | – | CCN(C)[C@H](CS(C)(=O)=O)c1ccc(-c2ccc3ncnc(Nc4ccc5c(cnn5Cc5cccc(F)c5)c4)c3c2)o1 [Compound 152]
23 | 0.788 µM | 5.09 µM | – | – | CON(C)[C@H](CS(C)(=O)=O)c1cnc(-c2ccc3ncnc(Nc4ccc(OCc5cccc(F)c5)c(Cl)c4)c3c2)s1 [Compound 143]
24 | 0.536 µM | 8.59 µM | – | – | CON(C)[C@@H](CS(C)(=O)=O)c1cnc(-c2ccc3ncnc(Nc4ccc(OCc5cccc(F)c5)c(Cl)c4)c3c2)s1 [Compound 130]
25 | – | – | 0.711 µM | 4.97 µM | CS(=O)(=O)C[C@@H](N)c1ccc(-c2ccc3ncnc(Nc4ccc5c(cnn5Cc5cccc(F)c5)c4)c3c2)o1 [Compound 144, (S)—N-(1-(3-fluorobenzyl)-1H-indazol-5-yl)-6-(5-(1-(amino)-2-(methylsulfonyl)ethyl)furan-2-yl)quinazolin-4-amine]
26 | 0.499 µM | 7.87 µM | – | – | CON[C@H](CS(C)(=O)=O)c1cnc(-c2ccc3ncnc(Nc4ccc(OCc5cccc(F)c5)c(Cl)c4)c3c2)s1 [Compound 142]
27 | 0.637 µM | 6.08 µM | – | – | CCCN(CCC)[C@H](CS(C)(=O)=O)c1ccc(-c2ccc3ncnc(Nc4ccc5c(cnn5Cc5cccc(F)c5)c4)c3c2)o1 [Compound 151]
28 | 0.48 µM | 8.59 µM | – | – | CON[C@H](CS(C)(=O)=O)c1ccc(-c2ccc3ncnc(Nc4ccc5c(cnn5Cc5cccc(F)c5)c4)c3c2)o1 [Compound 155]
29 | 0.452 µM | 4.13 µM | – | – | CCN(C)[C@H](CS(C)(=O)=O)c1cnc(-c2ccc3ncnc(Nc4ccc(OCc5cccc(F)c5)c(Cl)c4)c3c2)s1 [Compound 139]
30 | 0.554 µM | 7.89 µM | – | – | CCN[C@H](CS(C)(=O)=O)c1cnc(-c2ccc3ncnc(Nc4ccc(OCc5cccc(F)c5)c(Cl)c4)c3c2)s1 [Compound 133]
31 | – | – | 0.406 µM | 8.01 µM | CCCN[C@H](CS(C)(=O)=O)c1ccc(-c2ccc3ncnc(Nc4ccc5c(cnn5Cc5cccc(F)c5)c4)c3c2)o1 [Compound 147, (S)—N-(1-(3-fluorobenzyl)-1H-indazol-5-yl)-6-(5-(1-(propylamino)-2-(methylsulfonyl)ethyl)furan-2-yl)quinazolin-4-amine]
32 | – | – | 0.582 µM | 8.53 µM | CS(=O)(=O)C[C@@H](N)c1cnc(-c2ccc3ncnc(Nc4ccc(OCc5cccc(F)c5)c(Cl)c4)c3c2)s1 [Compound 131, (R)—N-(4-(3-fluorobenzyl-oxy)-3-chlorophenyl)-6-(5-(1-(amino)-2-(methylsulfonyl)ethyl)thiazole-2-yl)quinazolin-4-amine]
33 | 0.428 µM | 5.52 µM | – | – | CON(C)[C@H](CS(C)(=O)=O)c1ccc(-c2ccc3ncnc(Nc4ccc5c(cnn5Cc5cccc(F)c5)c4)c3c2)o1 [Compound 156]
34 | 0.667 µM | 9.71 µM | – | – | CON[C@@H](CS(C)(=O)=O)c1cnc(-c2ccc3ncnc(Nc4ccc(OCc5cccc(F)c5)c(Cl)c4)c3c2)s1 [Compound 129]
